Laboratory results taken from PubChem BioAssay (NCI).
“And” between values parts separate entries of the source, which are not always exact repeats. Identical values can stand only once.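 A five-concentration, 48-hour dose response in 96-well plates underlies each endpoint, interpolated linearly between surrounding concentrations. GI50 is the concentration that inhibits growth by half. TGI is the concentration that stops growth completely.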

Legend:
Assay in all cases: NCI tumour cell line growth inhibition, 48 h
[1] = system: DU-145 prostate
[2] = system: MCF7 breast
[3] = system: MDA-MB-231 breast
[4] = system: SK-MEL-5 melanoma
[5] = system: MALME-3M melanoma
[6] = system: SF-539 CNS
[7] = system: SNB-19 CNS
[8] = system: MDA-N
[9] = system: RXF 393 renal
[10] = system: ACHN renal

Row | Structure (SMILES) | TGI [1] | TGI [2] | TGI [3] | TGI [4] | TGI [5] | TGI [6] | TGI [7] | TGI [8] | TGI [9] | TGI [10] | GI50 [1] | GI50 [2] | GI50 [3] | GI50 [9] | GI50 [4] | GI50 [5] | GI50 [6] | GI50 [8]
1 | CC(=O)OCC1OC(n2c(Br)nc3c2c(=O)n(C)c(=O)n3C)C(OC(C)=O)C1OC(C)=O (stereo not given) | > 100 µM | > 100 µM | > 100 µM | > 100 µM | > 100 µM | > 100 µM | > 100 µM | > 100 µM | > 100 µM | > 100 µM |  |  |  |  |  |  |  | 
2 | Brc1cccc(C2ON=C(c3ccccc3)N2C23CC4CC(CC(C4)C2)C3)c1 (stereo not given) | > 10 µM | > 10 µM | > 10 µM | > 10 µM | > 10 µM | > 10 µM | > 10 µM | > 10 µM | > 10 µM | > 10 µM |  |  |  |  |  |  |  | 
3 | CCN1CCC(CNC(=O)c2ccc(N)cc2)N1CC (stereo not given) | > 100 µM | > 100 µM | > 100 µM | > 100 µM | > 100 µM | > 100 µM | > 100 µM | > 100 µM | > 100 µM | > 100 µM |  |  |  |  |  |  |  | 
4 | CN(C)c1ccc(/C=C/c2sc3ccccc3[n+]2C)cc1 | 13.2 µM and 11.2 µM | 17.6 µM and 7.41 µM | 10.1 µM and 33.8 µM | 3.93 µM and 3.27 µM | 12.1 µM and 6 µM | 9.91 µM and 17.8 µM | 14 µM and > 100 µM | 7.36 µM | 27.8 µM and 36.3 µM | 9.85 µM and 7.49 µM | 2.57 µM and 0.532 µM | 3.94 µM and 1.46 µM | 2 µM and 7.25 µM | 11 µM and 5.02 µM |  |  |  | 
5 | COc1ccccc1C1(c2c(OC)c(=O)c2=O)SCCCS1 | > 100 µM | > 100 µM | > 100 µM | > 100 µM | > 100 µM | > 100 µM | > 100 µM | > 100 µM | > 100 µM | > 100 µM |  |  |  |  |  |  |  | 
6 | Cc1ccc2nc(-c3ccc(C(C)(C)C)cc3)oc(=O)c2c1 | 68.4 µM | 63.1 µM | 54.2 µM | 27.6 µM | 53.9 µM | 40.6 µM | 74.2 µM | 67.5 µM | 88.5 µM | 36.6 µM |  |  |  |  |  |  |  | 
7 | Nc1nc(Cl)c(Cl)c(NCC2(O)CCC2)n1 | > 100 µM | > 100 µM | > 100 µM | > 100 µM | > 100 µM | > 100 µM | > 100 µM | > 100 µM | > 100 µM | > 100 µM |  |  |  |  |  |  |  | 
8 | O=C(Nc1ccc(S(=O)(=O)/N=c2\ncccn2C(=O)C(C(F)(F)F)C(F)(F)F)cc1)C(C(F)(F)F)C(F)(F)F | > 100 µM | > 100 µM | > 100 µM | > 100 µM | > 100 µM | > 100 µM | > 100 µM | > 100 µM | > 100 µM | > 100 µM |  |  |  |  |  |  |  | 
9 | CC(=O)OCC1OC(n2c(S)c(C#N)c(-c3ccccc3)c(C#N)c2=O)C(OC(C)=O)C(OC(C)=O)C1OC(C)=O (stereo not given) | > 100 µM | > 100 µM and 97.6 µM | > 100 µM and 83.7 µM | > 100 µM and 41.6 µM | > 100 µM and 98.9 µM | > 100 µM and 70.9 µM | > 100 µM | > 100 µM and 86.5 µM | 59.4 µM and 59.1 µM | > 100 µM |  | > 100 µM and 33.7 µM | > 71.9 µM and 22.1 µM |  | > 100 µM and 20.2 µM | > 100 µM and 32.2 µM | 51.6 µM and 25.7 µM | > 100 µM and 28.3 µM
10 | CC1(C)COC2=C(C1)C(=O)c1ccccc1C2=O | 3.07 µM | 2.99 µM | 4 µM | 1.88 µM | 3.29 µM | 2.9 µM | 3.82 µM | 0.325 µM | 3.51 µM | 2.9 µM |  |  |  |  |  |  |  | 
11 | COC(=O)C1OC(O[C@H]2CC[C@]3(C)[C@H]4CC=C5[C@@H]6CC(C)(C)CC[C@]6(C(=O)OC6OCC(O)C(O)C6OC6OC(C)C(OC7OCC(O)C(O)C7O)C(OC7OCC(O)(CO)C7O)C6O)[C@H](O)C[C@@]5(C)[C@]4(C)CC[C@H]3C2(C)C)C(O)C(O)C1O (stereo not given in full) | 20.9 µM | 3.43 µM | 7.56 µM | 16.6 µM | 15.7 µM | > 100 µM | 19 µM | 4.14 µM | 24.6 µM | 10.1 µM |  |  |  |  |  |  |  | 
12 | COC(=O)C1(SC)C2CCC3C2CCC31 (stereo not given) | > 100 µM | > 100 µM | > 100 µM | > 100 µM | > 100 µM | > 100 µM | > 100 µM | > 100 µM | > 100 µM | > 100 µM |  |  |  |  |  |  |  | 
13 | O=C(SCc1cccc2ccccc12)c1ccc(Cl)cc1 | > 100 µM | > 100 µM | > 100 µM | > 100 µM | > 100 µM | > 100 µM | > 100 µM | > 100 µM | > 100 µM | > 100 µM |  |  |  |  |  |  |  | 
14 | CCCCCCCCCCCCCCCCNc1ccn(C2CC(O)C(COC(c3ccccc3)(c3ccccc3)c3ccc(OC)cc3)O2)c(=O)n1 (stereo not given) | > 100 µM | > 100 µM | > 100 µM | > 100 µM | > 100 µM | > 100 µM | > 100 µM | > 100 µM | > 100 µM | > 100 µM |  |  |  |  |  |  |  | 
15 | C=C1C(=O)O[C@H]2C[C@@H]1[C@@H](O)[C@H](O)[C@@H](C)CCCC(C)=CCC[C@@]2(C)O | > 100 µM | 26.5 µM | 84.4 µM | 48.4 µM | 32.2 µM | 30.1 µM | > 100 µM | 54.6 µM | 74.1 µM | 27.8 µM |  |  |  |  |  |  |  | 
16 | COC(=O)Nc1nc2ccc(S(=O)(=O)N3CCOCC3)cc2[nH]1 | > 100 µM | > 100 µM | > 100 µM | > 100 µM | > 100 µM | 31 µM | > 100 µM | > 100 µM | > 100 µM | > 100 µM |  |  |  |  |  |  |  | 
